Data from US5776489A, “Controlled release carbonic anhydrase inhibitor containing pharmaceutical compositions from spherical granules in capsule oral dosage unit form” (priority 1992, dated 1998).
In brackets after ≈: the same amount, converted by molar mass.

Columns and labels:
[1] = pH 1.2
[2] = cited from earlier work

degradation in gastric fluid [1]: degradation | solubility in gastric fluid [1]: poor solubility
Compound: CC(=O)/N=c1/sc(S(N)(=O)=O)nn1C [methazolamide]
solubility ([2]; pH 7.2 phosphate buffer): 3400 µg/mL (≈ 14.4 mM) | aqueous solubility ([2]; water, 25° C.): 1500 µg/mL (≈ 6.35 mM)
